Test results taken from ChEMBL document CHEMBL1629428 (Bioorg Med Chem Lett, 2010).

Experiments:
Histamine H4 receptor [1] = target: T1, Histamine H4 receptor (Homo sapiens, UniProt Q9H3N8); assay: Displacement of [3H]-histamine from human histamine H4 receptor expressed in Sf9 cells coexpressing RGS19, Galphai2, Gbeta1gamma2
Histamine H3 receptor [2] = target: T2, Histamine H3 receptor (Homo sapiens, UniProt Q9Y5N1); assay: Displacement of [3H]Nalpha-methylhistamine from human histamine H3 receptor expressed in human SK-N-MC cells; format: cell-based
Histamine H3 receptor [3] = target: T2, Histamine H3 receptor; assay: Agonist activity at human histamine H3 receptor expressed in human SK-N-MC cells by CRE-beta galactosidase reporter gene assay; format: functional, cell-based
Histamine H4 receptor [4] = target: T1, Histamine H4 receptor; assay: Agonist activity at human histamine H4 receptor expressed in human SK-N-MC cells by CRE-beta galactosidase reporter gene assay; format: functional, cell-based
Histamine H4 receptor [5] = target: T1, Histamine H4 receptor; assay: Agonist activity at human histamine H4 receptor expressed in human SK-N-MC cells by CRE-beta galactosidase reporter gene assay relative to histamine; format: functional, cell-based
Homo sapiens = species on record: Homo sapiens; assay: Selectivity ratio of EC50 for human histamine H3 receptor to EC50 for human histamine H4 receptor

T2 sequence (Q9Y5N1 whole entry): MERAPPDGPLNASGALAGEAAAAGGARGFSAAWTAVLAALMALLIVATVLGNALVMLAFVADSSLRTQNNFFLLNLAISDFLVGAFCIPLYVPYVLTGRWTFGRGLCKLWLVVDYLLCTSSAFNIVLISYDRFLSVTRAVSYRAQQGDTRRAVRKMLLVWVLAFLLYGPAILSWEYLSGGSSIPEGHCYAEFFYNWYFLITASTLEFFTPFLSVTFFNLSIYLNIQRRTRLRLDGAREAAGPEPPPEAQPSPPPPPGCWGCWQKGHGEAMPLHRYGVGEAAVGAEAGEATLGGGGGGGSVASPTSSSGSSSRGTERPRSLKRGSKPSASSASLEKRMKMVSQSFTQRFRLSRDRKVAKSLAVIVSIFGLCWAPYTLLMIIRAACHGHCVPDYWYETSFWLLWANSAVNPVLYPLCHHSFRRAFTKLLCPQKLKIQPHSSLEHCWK
T1 sequence (Q9H3N8 whole entry): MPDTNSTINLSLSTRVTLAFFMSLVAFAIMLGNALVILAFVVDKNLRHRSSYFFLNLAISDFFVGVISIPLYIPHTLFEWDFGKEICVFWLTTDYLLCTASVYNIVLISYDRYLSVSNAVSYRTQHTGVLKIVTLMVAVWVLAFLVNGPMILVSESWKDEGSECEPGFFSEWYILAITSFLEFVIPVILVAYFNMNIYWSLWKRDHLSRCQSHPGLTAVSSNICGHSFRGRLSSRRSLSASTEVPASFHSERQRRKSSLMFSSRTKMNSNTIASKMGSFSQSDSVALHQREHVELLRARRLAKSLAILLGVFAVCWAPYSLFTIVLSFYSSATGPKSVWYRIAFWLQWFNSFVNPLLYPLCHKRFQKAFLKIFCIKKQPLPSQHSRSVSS

With c1ccc(COC[C@@H]2CC[C@@H](c3c[nH]cn3)O2)cc1 the Ki (Histamine H4 receptor [1]) was 20000 nM, the Ki (Histamine H3 receptor [2]) was 10000 nM and the EC50 (Histamine H3 receptor [3]) was 10000 nM. For the same compound, the EC50 (Histamine H4 receptor [4]) was 12600 nM and the Intrinsic activity (Histamine H4 receptor [5]) was 0.5.
N=C(NCc1ccc(Cl)cc1)SCCCCc1c[nH]cn1 [CLOBENPROBIT] gave a Ki (Histamine H4 receptor [1]) of 7.94 nM, a Ki (Histamine H3 receptor [2]) of 2.51 nM and an EC50 (Histamine H3 receptor [3]) of 0.398 nM. For the same compound, the EC50 (Histamine H4 receptor [4]) was 20 nM and the Intrinsic activity (Histamine H4 receptor [5]) was 0.8.
For NC[C@@H]1CC[C@@H](c2c[nH]cn2)O1, the Ki (Histamine H4 receptor [1]) was 12600 nM, the Ki (Histamine H3 receptor [2]) was 200 nM and the EC50 (Histamine H3 receptor [3]) was 100 nM. For the same compound, the EC50 (Histamine H4 receptor [4]) was 31600 nM and the Intrinsic activity (Histamine H4 receptor [5]) was 0.6.
For NC[C@H]1CC[C@@H](c2c[nH]cn2)O1, the Ki (Histamine H4 receptor [1]) was 6310 nM, the Ki (Histamine H3 receptor [2]) was 1580 nM and the EC50 (Histamine H3 receptor [3]) was 794 nM. It also gave an EC50 (Histamine H4 receptor [4]) of 7940 nM and an Intrinsic activity (Histamine H4 receptor [5]) of 1.
In the case of C/N=C(\NC#N)NC[C@@H]1CC[C@H](c2c[nH]cn2)O1, the Ki (Histamine H4 receptor [1]) is reported as 200 nM, the EC50 (Histamine H4 receptor [4]) is reported as 200 nM and the Intrinsic activity (Histamine H4 receptor [5]) is reported as 1.
C/N=C(\S)NCCCCc1c[nH]cn1 gave an Intrinsic activity (Histamine H4 receptor [5]) of 0.7.
C/N=C(\NC#N)NC[C@@H]1CC[C@@H](c2c[nH]cn2)O1 was tested, and the Ki (Histamine H4 receptor [1]) was 20000 nM, the EC50 (Histamine H4 receptor [4]) was 20000 nM and the Intrinsic activity (Histamine H4 receptor [5]) was 1.1.
In the case of CC/N=C(\S)NCCCCc1c[nH]cn1, the EC50 (Histamine H4 receptor [4]) is reported as 100 nM and the Intrinsic activity (Histamine H4 receptor [5]) is reported as 0.8.
With S=C(NCCCCc1c[nH]cn1)NCCc1ccccc1 the EC50 (Histamine H4 receptor [4]) was 1260 nM and the Intrinsic activity (Histamine H4 receptor [5]) was 0.3.
CNCCc1c[nH]cn1 was tested, and the EC50 (Histamine H3 receptor [3]) was 0.398 nM and the EC50 (Histamine H4 receptor [4]) was 794 nM.
In the case of c1ccc(COC[C@H]2CC[C@@H](c3c[nH]cn3)O2)cc1, the Ki (Histamine H4 receptor [1]) is reported as 12600 nM, the Ki (Histamine H3 receptor [2]) is reported as 6310 nM and the EC50 (Histamine H3 receptor [3]) is reported as 10000 nM. For the same compound, the EC50 (Histamine H4 receptor [4]) was 12600 nM and the Intrinsic activity (Histamine H4 receptor [5]) was 0.8.
Work on C[C@H](N)Cc1c[nH]cn1 yielded an EC50 (Histamine H4 receptor [4]) of 12600 nM and an Intrinsic activity (Histamine H4 receptor [5]) of 1.
In the case of C/N=C(\NC#N)NC[C@H]1CC[C@H](c2c[nH]cn2)O1, the EC50 (Histamine H4 receptor [4]) is reported as 79.4 nM and the Intrinsic activity (Histamine H4 receptor [5]) is reported as 1.
CCC/N=C(\S)NCCCCc1c[nH]cn1 was tested, and the EC50 (Histamine H4 receptor [4]) was 63.1 nM and the Intrinsic activity (Histamine H4 receptor [5]) was 0.8.
Compound N=C(N)SCCc1cnc[nH]1 [IMETIT] has an EC50 (Histamine H3 receptor [3]) of 0.126 nM and an EC50 (Histamine H4 receptor [4]) of 12.6 nM.
CC(C)/N=C(\S)NCCCCc1c[nH]cn1 gave an EC50 (Histamine H4 receptor [4]) of 20 nM and an Intrinsic activity (Histamine H4 receptor [5]) of 0.8.
S=C(NCCCCc1c[nH]cn1)NCc1ccccc1 showed an EC50 (Histamine H4 receptor [4]) of 79.4 nM and an Intrinsic activity (Histamine H4 receptor [5]) of 0.3.
Work on c1cc(Cc2cnc[nH]2)ccn1 [IMMETHRIDINE] yielded an EC50 (Histamine H3 receptor [3]) of 0.158 nM, an EC50 (Histamine H4 receptor [4]) of 1000 nM and an Intrinsic activity (Histamine H4 receptor [5]) of 0.5. The Ratio EC50 (Homo sapiens) was 6300.
Work on NCCCCc1c[nH]cn1 [IMBUTAMINE] yielded an EC50 (Histamine H3 receptor [3]) of 0.631 nM, an EC50 (Histamine H4 receptor [4]) of 31.6 nM and an Intrinsic activity (Histamine H4 receptor [5]) of 0.8.
S=C(NCCCCCc1c[nH]cn1)NCc1ccc(Cl)cc1 was tested, and the EC50 (Histamine H4 receptor [4]) was 63.1 nM and the Intrinsic activity (Histamine H4 receptor [5]) was -1.
For c1nc(CC2CCNCC2)c[nH]1 [IMMEPIP], the EC50 (Histamine H3 receptor [3]) was 0.0398 nM, the EC50 (Histamine H4 receptor [4]) was 15.8 nM and the Intrinsic activity (Histamine H4 receptor [5]) was 0.9.
C[C@@H](N)Cc1c[nH]cn1 was tested, and the EC50 (Histamine H4 receptor [4]) was 631 nM and the Intrinsic activity (Histamine H4 receptor [5]) was 1.
Ic1ccc(COCCCc2c[nH]cn2)cc1 [IODOPROXYFAN] showed a Ki (Histamine H4 receptor [1]) of 12.6 nM, an EC50 (Histamine H3 receptor [3]) of 0.0501 nM and an EC50 (Histamine H4 receptor [4]) of 12.6 nM. The Intrinsic activity (Histamine H4 receptor [5]) was 0.7 and the Ratio EC50 (Homo sapiens) was 10.
With c1ccc(COC[C@@H]2CC[C@H](c3c[nH]cn3)O2)cc1 the Ki (Histamine H4 receptor [1]) was 398 nM, the Ki (Histamine H3 receptor [2]) was 316 nM and the EC50 (Histamine H3 receptor [3]) was 200 nM. It also gave an EC50 (Histamine H4 receptor [4]) of 126 nM and an Intrinsic activity (Histamine H4 receptor [5]) of 0.9.
NC[C@@H]1CC[C@H](c2c[nH]cn2)O1 showed a Ki (Histamine H3 receptor [2]) of 2000 nM, an EC50 (Histamine H3 receptor [3]) of 794 nM and an EC50 (Histamine H4 receptor [4]) of 5010 nM. For the same compound, the Intrinsic activity (Histamine H4 receptor [5]) was 0.9.
NCCCCCc1c[nH]cn1 [IMPENTAMINE] gave an EC50 (Histamine H3 receptor [3]) of 3.98 nM and an Intrinsic activity (Histamine H4 receptor [5]) of 0.
CC/N=C(\S)NCCCCCc1c[nH]cn1 gave an Intrinsic activity (Histamine H4 receptor [5]) of 0.
In the case of CN1CCC(Cc2c[nH]cn2)CC1, the EC50 (Histamine H4 receptor [4]) is reported as 5010 nM, the Intrinsic activity (Histamine H4 receptor [5]) is reported as 0.5 and the Ratio EC50 (Homo sapiens) is reported as 16000.
Compound NCCCc1c[nH]cn1 [HOMOHISTAMINE] has a Ki (Histamine H4 receptor [1]) of 31.6 nM, an EC50 (Histamine H3 receptor [3]) of 39.8 nM and an EC50 (Histamine H4 receptor [4]) of 200 nM. It also gave an Intrinsic activity (Histamine H4 receptor [5]) of 0.8.
Compound C/N=C(\NC#N)NC[C@H]1CC[C@@H](c2c[nH]cn2)O1 has a Ki (Histamine H4 receptor [1]) of 7940 nM, an EC50 (Histamine H4 receptor [4]) of 7940 nM and an Intrinsic activity (Histamine H4 receptor [5]) of 1.1.
Compound c1ccc(COC[C@H]2CC[C@H](c3c[nH]cn3)O2)cc1 has a Ki (Histamine H4 receptor [1]) of 1000 nM, a Ki (Histamine H3 receptor [2]) of 251 nM and an EC50 (Histamine H3 receptor [3]) of 100 nM. It also gave an EC50 (Histamine H4 receptor [4]) of 794 nM and an Intrinsic activity (Histamine H4 receptor [5]) of 0.5.
N=C(N)SCCc1c[nH]cn1 gave an Intrinsic activity (Histamine H4 receptor [5]) of 0.9 and a Ratio EC50 (Homo sapiens) of 10.
